Among the data in patent US9290451B2 (Hoffmann-La Roche Inc., priority 2011, dated 2016) are EC50 values, retold here.

One experiment addresses human CB2 receptors (Homo sapiens (Human), UniProt P34972). The experiment in a line: cAMP assay, CHO cells expressing human CB2 receptors. It is filed as cell-based. The note with it: CHO cells expressing human CB2, cAMP; read-out: human CB2 EC50. Summed up:
(§1)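 CHO cells, KRB buffer + 1 mM IBMX, 30 min 30 °C preincubation; compound 30 min 30 °C; lysis + TR-FRET cAMP detection, 2 h RT; cAMP from standard curve (10 μM–0.13 nM); EC50.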
On the technique in general: cAMP levels reflect the balance of adenylyl cyclase and phosphodiesterase activity.

A further experiment has as its target human CB1 receptors (Homo sapiens (Human), UniProt P21554). The experiment is described as follows: cAMP assay, CHO cells expressing human CB1 receptors. It is filed as cell-based. As to conditions: CHO cells expressing human CB1, cAMP; read-out: human CB1 EC50. Summed up:
as §1

human CB2 receptors, sequence (P34972 whole entry): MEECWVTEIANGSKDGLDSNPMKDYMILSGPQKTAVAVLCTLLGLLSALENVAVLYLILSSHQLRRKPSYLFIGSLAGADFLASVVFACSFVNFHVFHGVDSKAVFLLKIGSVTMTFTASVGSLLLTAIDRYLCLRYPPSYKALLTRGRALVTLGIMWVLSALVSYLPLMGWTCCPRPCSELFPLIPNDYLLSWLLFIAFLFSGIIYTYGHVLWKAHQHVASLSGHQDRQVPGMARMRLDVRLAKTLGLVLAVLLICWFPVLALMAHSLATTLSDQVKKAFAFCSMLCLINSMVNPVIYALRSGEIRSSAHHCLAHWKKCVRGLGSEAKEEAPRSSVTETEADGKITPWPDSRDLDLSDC
human CB1 receptors, sequence (P21554 whole entry): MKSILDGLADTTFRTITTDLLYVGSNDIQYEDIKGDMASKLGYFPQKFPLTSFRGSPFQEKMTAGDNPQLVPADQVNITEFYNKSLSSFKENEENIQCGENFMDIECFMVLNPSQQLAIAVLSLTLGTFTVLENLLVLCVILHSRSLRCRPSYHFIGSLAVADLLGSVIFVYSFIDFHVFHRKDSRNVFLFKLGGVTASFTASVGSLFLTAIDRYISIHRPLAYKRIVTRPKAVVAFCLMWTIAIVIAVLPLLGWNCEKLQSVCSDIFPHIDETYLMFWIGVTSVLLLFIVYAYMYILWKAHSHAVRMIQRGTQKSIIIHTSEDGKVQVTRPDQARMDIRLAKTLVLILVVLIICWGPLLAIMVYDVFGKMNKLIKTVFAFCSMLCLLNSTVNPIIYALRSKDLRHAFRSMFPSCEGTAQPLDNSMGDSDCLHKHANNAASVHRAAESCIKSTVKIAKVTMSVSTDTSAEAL

The EC50 is the concentration at which the effect is half-maximal. For the molecule `CCC(CC)(NC(=O)c1ccc(N(CC(F)(F)F)CC(F)(F)F)c(OCC2CC2)n1)C(=O)NC` [Example 165, 5-[Bis-(2,2,2-trifluoro-ethyl)-amino]-6-cyclopropylmethoxy-pyridine-2-carboxylic acid (1-ethyl-1-methylcarbamoyl-propyl)-amide], the EC50 at human CB2 receptors came out at 7.2 nM; on human CB1 receptors, 1200 nM.

`Cc1nc(C(C)(C)NC(=O)c2ccc(C3CC3)c(OCC3CCCO3)n2)no1` (stereo not drawn) [Example 166, 5-Cyclopropyl-6-(tetrahydro-furan-2-ylmethoxy)-pyridine-2-carboxylic acid [1-methyl-1-(5-methyl-[1,2,4]oxadiazol-3-yl)-ethyl]-amide]: the EC50 was 30.5 nM on human CB2 receptors and > 10000 nM at human CB1 receptors.

Regarding `CC(C)(C#N)NC(=O)c1ccc(C2CC2)c(OCC2CC2)n1` [Example 167, N-(2-Cyanopropan-2-yl)-5-cyclopropyl-6-(cyclopropylmethoxy)picolinamide], the concentration giving a half-maximal response (EC50) at human CB2 receptors was 206 nM; at human CB1 receptors it was > 10000 nM.

Regarding `CNC(=O)[C@@H](NC(=O)c1ccc(C2CC2)c(OCC2CC2)n1)C(C)(C)C` [Example 168, (S)-5-Cyclopropyl-6-(cyclopropylmethoxy)-N-(3,3-dimethyl-1-(methylamino)-1-oxobutan-2-yl)picolinamide], the EC50 turned out to be 0.6 nM at human CB2 receptors and 313 nM at human CB1 receptors.

For `CC(C)C(C)(NC(=O)c1ccc(C2CC2)c(OCC2CC2)n1)C(N)=O` (stereo not drawn) [Example 169, N-(1-Amino-2,3-dimethyl-1-oxobutan-2-yl)-5-cyclopropyl-6-(cyclopropylmethoxy)picolinamide], the values for the EC50 on human CB2 receptors and on human CB1 receptors were 182 nM and > 10000 nM, respectively.

As to `CCC(C)(NC(=O)c1ccc(C2CC2)c(OCC2CC2)n1)C(N)=O` (stereo not drawn) [Example 170, N-(1-Amino-2-methyl-1-oxobutan-2-yl)-5-cyclopropyl-6-(cyclopropylmethoxy)picolinamide], the EC50 on human CB2 receptors is 194 nM; on human CB1 receptors it was > 10000 nM.

For `Cc1nc(C2(NC(=O)c3ccc(C4CC4)c(OCC4CC4)n3)CCC2)no1` [Example 171, 5-Cyclopropyl-6-(cyclopropylmethoxy)-N-(1-(5-methyl-1,2,4-oxadiazol-3-yl)cyclobutyl)picolinamide], the EC50 at human CB2 receptors was 46.8 nM; on human CB1 receptors, > 10000 nM.

With `NC(=O)[C@@H](NC(=O)c1ccc(C2CC2)c(OCC2CC2)n1)c1ccccc1` [Example 172, (S)-N-(2-Amino-2-oxo-1-phenylethyl)-5-cyclopropyl-6-(cyclopropylmethoxy)picolinamide], the values for the EC50 on human CB2 receptors and on human CB1 receptors were 10.1 nM and > 10000 nM, respectively.

In the case of `NC(=O)[C@H](NC(=O)c1ccc(C2CC2)c(OCC2CC2)n1)c1ccccc1` [Example 173, (R)-N-(2-Amino-2-oxo-1-phenylethyl)-5-cyclopropyl-6-(cyclopropylmethoxy)picolinamide], the figures for the EC50 on human CB2 receptors and on human CB1 receptors were 23.1 nM and > 10000 nM, respectively.

Take `CC(C)C[C@H](CO)NC(=O)c1ccc(C2CC2)c(OCC2CC2)n1` [Example 174, (R)-5-Cyclopropyl-6-(cyclopropylmethoxy)-N-(1-hydroxy-4-methylpentan-2-yl)picolinamide]: the results for the EC50 on human CB2 receptors and at human CB1 receptors were 32 nM and > 10000 nM, respectively.

Consider `O=C(NC1(CO)CCCC1)c1ccc(C2CC2)c(OCC2CC2)n1` [Example 175, 5-Cyclopropyl-6-(cyclopropylmethoxy)-N-(1-(hydroxymethyl)cyclopentyl)picolinamide], for which the EC50 on human CB2 receptors was 47.8 nM; on human CB1 receptors it was > 10000 nM.

Regarding `Cc1noc(C(C)(C)NC(=O)c2ccc(C3CC3)c(OCC3CC3)n2)n1` [Example 176, 5-Cyclopropyl-6-(cyclopropylmethoxy)-N-(2-(3-methyl-1,2,4-oxadiazol-5-yl)propan-2-yl)picolinamideinamide], the EC50 is 114 nM at human CB2 receptors and > 10000 nM on human CB1 receptors.

Turning to `CC(C)C[C@H](NC(=O)c1ccc(Br)c(Oc2ccc(F)cc2)n1)C(N)=O` [Example 177, 5-Bromo-6-(4-fluoro-phenoxy)-pyridine-2-carboxylic acid ((S)-1-carbamoyl-3-methyl-butyl)-amide], the EC50 was 196 nM on human CB2 receptors and > 10000 nM on human CB1 receptors.

Take `CC(C)CC(C)(NC(=O)c1ccc(C2CC2)c(OCC2CC2)n1)C(N)=O` (stereo not drawn) [Example 178, N-(1-Amino-2,4-dimethyl-1-oxopentan-2-yl)-5-cyclopropyl-6-(cyclopropylmethoxy)picolinamide]: the EC50 at human CB2 receptors was 42.2 nM; on human CB1 receptors, > 10000 nM.

For the molecule `CC(C)(C)C(NC(=O)c1ccc(C2CC2)c(OCC2CC2)n1)C(N)=O` (stereo not drawn) [Example 179, N-(1-Amino-3,3-dimethyl-1-oxobutan-2-yl)-5-cyclopropyl-6-(cyclopropylmethoxy)picolinamide], the EC50 at human CB2 receptors is 3.8 nM; at human CB1 receptors it was 514 nM.

Consider `NC(=O)C1(NC(=O)c2ccc(C3CC3)c(OCC3CC3)n2)CCOCC1` [Example 180, 5-Cyclopropyl-6-cyclopropylmethoxy-pyridine-2-carboxylic acid (4-carbamoyl-tetrahydro-pyran-4-yl)-amide], for which the EC50 on human CB2 receptors was 423 nM; at human CB1 receptors, > 10000 nM.

For the molecule `CNC(=O)[C@H](CC(C)C)NC(=O)c1ccc(C2CC2)c(OCC2CC2)n1` [Example 181, (S)-5-cyclopropyl-6-(cyclopropylmethoxy)-N-(4-methyl-1-(methylamino)-1-oxopentan-2-yl)picolinamide], the EC50 at human CB2 receptors was determined as 1.3 nM; at human CB1 receptors it was 231 nM.

For the molecule `CNC(=O)[C@H](CC(C)(C)C)NC(=O)c1ccc(C2CC2)c(OCC2CC2)n1` [Example 182, (S)-5-Cyclopropyl-6-(cyclopropylmethoxy)-N-(4,4-dimethyl-1-(methylamino)-1-oxopentan-2-yl)picolinamide], the EC50 is 1.7 nM at human CB2 receptors and > 10000 nM on human CB1 receptors.

Consider `CNC(=O)[C@@H](NC(=O)c1ccc(C2CC2)c(OCC2CCCO2)n1)C(C)(C)C` (stereo partly drawn) [Example 183, 5-Cyclopropyl-N-((S)-3,3-dimethyl-1-(methylamino)-1-oxobutan-2-yl)-6-((tetrahydrofuran-2-yl)methoxy)picolinamide], for which the EC50 at human CB2 receptors is 4 nM; on human CB1 receptors, 102 nM.

Regarding `CNC(=O)[C@H](CC(C)C)NC(=O)c1ccc(C2CC2)c(OCC2CCCO2)n1` (stereo partly drawn) [Example 184, 5-Cyclopropyl-N-((S)-4-methyl-1-(methylamino)-1-oxopentan-2-yl)-6-((tetrahydrofuran-2-yl)methoxy)picolinamide], the EC50 at human CB2 receptors is 3.9 nM; on human CB1 receptors it was > 10000 nM.

Regarding `CNC(=O)[C@H](CC(C)(C)C)NC(=O)c1ccc(C2CC2)c(OCC2CCCO2)n1` (stereo partly drawn) [Example 185, 5-Cyclopropyl-N-((S)-4,4-dimethyl-1-(methylamino)-1-oxopentan-2-yl)-6-((tetrahydrofuran-2-yl)methoxy)picolinamide], the EC50 at human CB2 receptors is 7.5 nM; on human CB1 receptors, > 10000 nM.

Take `CC(C)C[C@H](NC(=O)c1ccc(C2CC2)c(OCC2CCCO2)n1)C(N)=O` (stereo partly drawn) [Example 186, N-((S)-1-Amino-4-methyl-1-oxopentan-2-yl)-5-cyclopropyl-6-((tetrahydrofuran-2-yl)methoxy)picolinamide]: the 50% effective concentration (EC50) at human CB2 receptors was 1.1 nM; on human CB1 receptors, 1490 nM.

As for `CC(C)C[C@H](NC(=O)c1ccc(C2CC2)c(Oc2ccc(F)cc2)n1)C(N)=O` [Example 187, 5-Cyclopropyl-6-(4-fluoro-phenoxy)-pyridine-2-carboxylic acid ((S)-1-carbamoyl-3-methyl-butyl)-amide], the EC50 was 52.2 nM at human CB2 receptors and > 10000 nM at human CB1 receptors.

With `CNC(=O)[C@@H](NC(=O)c1ccc(Br)c(OCC2CCCO2)n1)C(C)(C)C` (stereo partly drawn) [Example 188, 5-Bromo-6-(tetrahydro-furan-2-ylmethoxy)-pyridine-2-carboxylic acid ((S)-2,2-dimethyl-1-methylcarbamoyl-propyl)-amide], the EC50 at human CB2 receptors stood at 5 nM; at human CB1 receptors, 375 nM.

With `Cc1nc(C2(NC(=O)c3ccc(C4CC4)c(OCc4ccccn4)n3)CCC2)no1` [Example 189, 5-Cyclopropyl-N-(1-(5-methyl-1,2,4-oxadiazol-3-yl)cyclobutyl)-6-(pyridin-2-ylmethoxy)picolinamide], the EC50 is 381 nM at human CB2 receptors and > 10000 nM on human CB1 receptors.

Turning to `Cc1nc(C(NC(=O)c2ccc(C3CC3)c(OCC3CC3)n2)C2CC2)no1` (stereo not drawn) [Example 190, 5-Cyclopropyl-N-(cyclopropyl(5-methyl-1,2,4-oxadiazol-3-yl)methyl)-6-(cyclopropylmethoxy)picolinamide], the EC50 on human CB2 receptors was 20.4 nM; at human CB1 receptors it was > 10000 nM.

For the molecule `CC(C)[C@](C)(CO)NC(=O)c1ccc(C2CC2)c(OCC2CC2)n1` [Example 191, 5-Cyclopropyl-6-cyclopropylmethoxy-pyridine-2-carboxylic acid ((R)-1-hydroxymethyl-1,2-dimethyl-propyl)-amide], the EC50 on human CB2 receptors was 57.7 nM; on human CB1 receptors it was > 10000 nM.

With `CNC(=O)[C@@H](NC(=O)c1cccc(-c2cccc(Cl)c2)n1)C(C)(C)C` [Example 192, (S)-6-(3-Chlorophenyl)-N-(3,3-dimethyl-1-(methylamino)-1-oxobutan-2-yl)picolinamide], the EC50 is 64.2 nM on human CB2 receptors and 1540 nM at human CB1 receptors.

Take `CNC(=O)[C@H](CC(C)(C)C)NC(=O)c1cccc(-c2cccc(Cl)c2)n1` [Example 193, (S)-6-(3-Chlorophenyl)-N-(4,4-dimethyl-1-(methylamino)-1-oxopentan-2-yl)picolinamide]: the EC50 is 99.4 nM on human CB2 receptors and > 10000 nM on human CB1 receptors.

For the molecule `CC(C)(CCO)NC(=O)c1ccc(C2CC2)c(OCC2CC2)n1` [Example 194, 5-Cyclopropyl-6-(cyclopropylmethoxy)-N-(4-hydroxy-2-methylbutan-2-yl)picolinamide], the EC50 on human CB2 receptors was 99.1 nM; at human CB1 receptors it was > 10000 nM.
